In patent US20260000692A1, “Substituted N-(Pyridin-2-yl)Acetamide Derivatives as CDK12/13 Inhibitors” (Aurigene Oncology Limited, priority 2022, published 2026):

Biological target: CDK12 (Homo sapiens, UniProt Q9NYV4)
Assay: Biochemical assay for CDK12 (LANCE TR-FRET, IC50 determination)
Settings: for IC50: CDK12, IC50 class, read-out: IC50 μM (in range); for inhibition at 10 µM: read-out: CDK12 % Inhibition @ 10 μM
Method: Biochemical Assay for CDK12 (IC50 Determination):
The inhibitory activity of the test compounds was assessed by the LANCE TR-FRET assay, which detects the ATP-dependent phosphorylation of an ULight-4E-BP1 (Thr37/Thr46) substrate peptide (100 nM) by CDK12 (30 nM). Briefly, the enzyme reaction was run in reaction buffer (25 mM HEPES (pH 7.5), 10 mM MgCl2, […], 0.01% Triton x, 1 mM DTT). The assay was performed in 384-well plate format. The end concentration of the ATP substrate was […], and that of the ULight-4E-BP1 (Thr37/Thr46) substrate peptide was 100 nM, and of CDK12 was 30 nM. Pre-incubation of the compound and enzyme was performed for 60 min at room temperature. After 60 min incubation at room temperature, the reaction was terminated by the addition of 40 mM EDTA and 0.5 nM Eu-labeled anti-phospho-eIF4E-binding protein (Thr37/46) antibody in LANCE detection buffer. Time-resolved fluorescence (excitation, 320 nm; emission donor, 615 nm; emission acceptor, 665 nm) was monitored by using 2030 multilabel reader Victor5 (PerkinElmer). The Fluorescence emission of the samples were measured and the ratio was plotted against the compound concentration to generate the dose response curve. The IC50 values were derived by fitting a sigmoidal dose-response curve to a plot of assay readout over inhibitor concentration. All fits were computed with the program Prism 5.03 (Graph Pad Software, San Diego, CA). The % inhibition values at […] were calculated with respect to enzyme activity.

CDK12, sequence (Q9NYV4 whole entry): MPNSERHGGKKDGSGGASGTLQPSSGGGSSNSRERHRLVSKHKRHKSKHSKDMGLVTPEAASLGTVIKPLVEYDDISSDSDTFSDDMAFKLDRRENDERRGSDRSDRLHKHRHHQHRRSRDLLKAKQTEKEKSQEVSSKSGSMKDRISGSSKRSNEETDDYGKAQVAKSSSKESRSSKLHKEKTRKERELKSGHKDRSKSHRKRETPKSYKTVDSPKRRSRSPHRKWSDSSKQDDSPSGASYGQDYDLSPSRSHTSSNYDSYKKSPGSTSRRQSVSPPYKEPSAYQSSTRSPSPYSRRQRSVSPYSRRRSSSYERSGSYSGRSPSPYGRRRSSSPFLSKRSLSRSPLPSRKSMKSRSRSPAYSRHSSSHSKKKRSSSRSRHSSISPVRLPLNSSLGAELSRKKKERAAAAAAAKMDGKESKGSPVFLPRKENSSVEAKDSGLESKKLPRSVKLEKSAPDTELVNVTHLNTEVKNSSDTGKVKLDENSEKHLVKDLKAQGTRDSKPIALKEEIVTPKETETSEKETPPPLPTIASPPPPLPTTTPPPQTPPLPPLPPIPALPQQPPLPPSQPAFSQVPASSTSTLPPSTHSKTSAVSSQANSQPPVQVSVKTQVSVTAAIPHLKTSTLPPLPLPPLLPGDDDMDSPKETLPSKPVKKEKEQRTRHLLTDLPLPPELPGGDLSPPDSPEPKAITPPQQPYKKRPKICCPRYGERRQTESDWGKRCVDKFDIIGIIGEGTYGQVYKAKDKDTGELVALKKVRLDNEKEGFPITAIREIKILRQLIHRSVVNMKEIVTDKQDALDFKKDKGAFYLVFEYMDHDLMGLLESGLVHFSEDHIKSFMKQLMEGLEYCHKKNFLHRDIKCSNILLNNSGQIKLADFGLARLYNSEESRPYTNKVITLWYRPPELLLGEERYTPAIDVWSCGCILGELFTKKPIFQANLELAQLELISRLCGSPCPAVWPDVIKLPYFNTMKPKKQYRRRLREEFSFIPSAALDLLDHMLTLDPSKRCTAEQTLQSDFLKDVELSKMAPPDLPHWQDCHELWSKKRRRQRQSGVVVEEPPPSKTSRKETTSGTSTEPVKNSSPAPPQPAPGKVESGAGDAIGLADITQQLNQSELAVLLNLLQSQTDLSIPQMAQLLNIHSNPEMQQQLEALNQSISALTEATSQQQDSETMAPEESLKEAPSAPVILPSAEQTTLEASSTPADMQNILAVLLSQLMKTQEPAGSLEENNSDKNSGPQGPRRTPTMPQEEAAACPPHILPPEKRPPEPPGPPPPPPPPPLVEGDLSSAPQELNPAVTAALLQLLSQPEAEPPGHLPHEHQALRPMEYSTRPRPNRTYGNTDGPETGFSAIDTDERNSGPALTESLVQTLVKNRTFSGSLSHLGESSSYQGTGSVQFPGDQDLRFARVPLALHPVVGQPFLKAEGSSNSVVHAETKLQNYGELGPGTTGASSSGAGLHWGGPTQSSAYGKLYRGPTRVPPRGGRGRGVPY
CDK12, sequence (O75909 whole entry partner): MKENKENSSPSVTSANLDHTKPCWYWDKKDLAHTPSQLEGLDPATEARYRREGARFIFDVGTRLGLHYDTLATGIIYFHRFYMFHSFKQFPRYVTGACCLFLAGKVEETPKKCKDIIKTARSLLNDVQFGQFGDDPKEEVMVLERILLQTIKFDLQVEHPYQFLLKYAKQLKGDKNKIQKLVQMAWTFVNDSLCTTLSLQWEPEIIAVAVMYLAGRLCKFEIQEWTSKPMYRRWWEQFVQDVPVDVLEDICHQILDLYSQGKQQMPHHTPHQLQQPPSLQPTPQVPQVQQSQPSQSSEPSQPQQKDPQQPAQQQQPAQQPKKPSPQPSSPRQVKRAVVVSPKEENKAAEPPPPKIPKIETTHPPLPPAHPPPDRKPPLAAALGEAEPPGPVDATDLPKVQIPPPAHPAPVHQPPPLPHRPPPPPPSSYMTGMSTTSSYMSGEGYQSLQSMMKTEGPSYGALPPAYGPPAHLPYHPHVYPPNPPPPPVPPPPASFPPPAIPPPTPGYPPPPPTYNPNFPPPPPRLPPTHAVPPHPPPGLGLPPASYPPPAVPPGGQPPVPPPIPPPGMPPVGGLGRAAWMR

SMILES | IC50 [µM] | inhibition at 10 µM (compound at 10 μM) [%] | CDK12 % Inhibition @ 10 μM (compound at 10 μM, 10 µM) [%]
N#CN1CCC=C(c2ccc(CC(=O)Nc3cnc(Cl)cn3)cn2)C1 [Compound 108, N-(5-chloropyrazin-2-yl)-2-(1′-cyano-1′,2′,5′,6′-tetrahydro-[2,3′-bipyridin]-5-yl)acetamide] | 0.01 to 0.1 | 85 | 
COc1cc(NC(=O)C(C)c2ccc(C3=CCCN(C#N)C3)nc2)ncc1Cl (single isomer, unassigned) [Compound 49] | < 0.01 | 89 | 
N#CN1CC=C(c2ccc(CC(=O)Nc3cc(N4CCOCC4)c(Cl)cn3)cn2)CC1 [Compound 7, N-(5-chloro-4-morpholinopyridin-2-yl)-2-(1′-cyano-1′,2′,3′,6′-tetrahydro-[2,4′-bipyridin]-5-yl)acetamide] | 0.01 to 0.1 | 88 | 
COc1cc(NC(=O)Cc2ccc(-c3cccc(C#N)n3)c(F)c2)ncc1Cl [Compound 153, N-(5-chloro-4-methoxypyridin-2-yl)-2-(4-(6-cyanopyridin-2-yl)-3-fluorophenyl)acetamide] |  | 34 | 
N#CN1CC=C(c2ccc(CC(=O)Nc3cc(O[C@@H]4CCOC4)c(Cl)cn3)cn2)CC1 [Compound 26, (R)-N-(5-chloro-4-((tetrahydrofuran-3-yl)oxy)pyridin-2-yl)-2-(1′-cyano-1′,2′,3′,6′-tetrahydro-[2,4′-bipyridin]-5-yl)acetamide] | < 0.01 | 99 | 
COc1cc(NC(=O)Cc2ccc(-c3cc(N4CC5CC4CN5C)cc(C#N)n3)nc2)ncc1Cl (stereo not shown) [Compound 181, N-(5-chloro-4-methoxypyridin-2-yl)-2-(6′-cyano-4′-(5-methyl-2,5-diazabicyclo[2.2.1]heptan-2-yl)-[2,2′-bipyridin]-5-yl)acetamide] | 0.01 to 0.1 | 92 | 
CC(C)Oc1cc(NC(=O)Cc2ccc(C3=CCN(C#N)CC3)nc2)ncc1Cl [Compound 21, N-(5-chloro-4-isopropoxypyridin-2-yl)-2-(1′-cyano-1′,2′,3′,6′-tetrahydro-[2,4′-bipyridin]-5-yl)acetamide] | < 0.01 | 94 | 
COc1cc(NC(=O)C(C)c2ccc(C3=CCN(C#N)CC3)nc2)ncc1Cl (stereo not shown) [Compound 51, N-(5-chloro-4-methoxypyridin-2-yl)-2-(1′-cyano-1′,2′,3′,6′-tetrahydro-[2,4′-bipyridin]-5-yl)propanamide] | < 0.01 | 102 | 
COc1cc(NC(=O)Cc2ccc(C3=CCCN(C#N)C3)c(OC)c2)ncc1Cl [Compound 116, N-(5-chloro-4-methoxypyridin-2-yl)-2-(4-(1-cyano-1,2,5,6-tetrahydropyridin-3-yl)-3-methoxyphenyl)acetamide] |  | 23 | 
Cc1cc(CC(=O)Nc2ccc(Cl)cn2)cnc1C1=CCN(C#N)CC1 [Compound 13, N-(5-chloropyridin-2-yl)-2-(1′-cyano-3-methyl-1′,2′,3′,6′-tetrahydro-[2,4′-bipyridin]-5-yl)acetamide] | 0.01 to 0.1 | 75 | 
N#CN1CCC=C(c2ccc(CC(=O)Nc3ccc(F)cn3)cn2)C1 [Compound 103, 2-(1′-cyano-1′,2′,5′,6′-tetrahydro-[2,3′-bipyridin]-5-yl)-N-(5-fluoropyridin-2-yl)acetamide] | 0.01 to 0.1 | 98 | 

Next, values leading:

IC50 [µM] | inhibition at 10 µM (compound at 10 μM) [%] | CDK12 % Inhibition @ 10 μM (compound at 10 μM, 10 µM) [%] | SMILES
0.01 to 0.1 | 96 |  | COc1cc(NC(=O)Cc2ccc(-c3cc(OC4CCN(C)CC4)cc(C#N)n3)nc2)ncc1Cl [Compound 176, N-(5-chloro-4-methoxypyridin-2-yl)-2-(6′-cyano-4′-((1-methylpiperidin-4-yl)oxy)-[2,2′-bipyridin]-5-yl)acetamide]
< 0.01 | 93 |  | N#CN1CC=C(c2ccc(CC(=O)Nc3cc(O[C@H]4CCOC4)c(Cl)cn3)cn2)CC1 [Compound 27, (S)-N-(5-chloro-4-((tetrahydrofuran-3-yl)oxy)pyridin-2-yl)-2-(1′-cyano-1′,2′,3′,6′-tetrahydro-[2,4′-bipyridin]-5-yl)acetamide]
0.01 to 0.1 | 89 |  | N#CN1CCC(c2ccc(CC(=O)Nc3ccc(Cl)cn3)cn2)C1 (stereo not shown) [Compound 16, N-(5-chloropyridin-2-yl)-2-(6-(1-cyanopyrrolidin-3-yl)pyridin-3-yl)acetamide]
> 0.1 | 87 |  | N#CN1CCC=C(c2ccc(CC(=O)Nc3ccccn3)cn2)C1 [Compound 102, 2-(1′-cyano-1′,2′,5′,6′-tetrahydro-[2,3′-bipyridin]-5-yl)-N-(pyridin-2-yl)acetamide]
> 0.1 | 83 |  | COc1cc(NC(=O)Cc2ccc(-c3ccc(C#N)nc3)nc2)ncc1Cl [Compound 140, N-(5-chloro-4-methoxypyridin-2-yl)-2-(6′-cyano-[2,3′-bipyridin]-5-yl)acetamide]
< 0.01 | 96 |  | COCC(C)Oc1cc(NC(=O)Cc2ccc(C3=CCN(C#N)CC3)nc2)ncc1Cl (stereo not shown) [Compound 14, N-(5-chloro-4-((1-methoxypropan-2-yl)oxy)pyridin-2-yl)-2-(1′-cyano-1′,2′,3′,6′-tetrahydro-[2,4′-bipyridin]-5-yl)acetamide]
< 0.01 | 92 |  | N#CN1CC=C(c2ccc(CC(=O)Nc3cc(C4(O)COC4)c(Cl)cn3)cn2)CC1 [Compound 17, N-(5-chloro-4-(3-hydroxyoxetan-3-yl)pyridin-2-yl)-2-(1′-cyano-1′,2′,3′,6′-tetrahydro-[2,4′-bipyridin]-5-yl)acetamide]
0.01 to 0.1 | 93 |  | COc1cc(NC(=O)Cc2ccc(-c3ccc(CN(C)C#N)nc3)nc2)ncc1Cl [Compound 131, N-(5-chloro-4-methoxypyridin-2-yl)-2-(6′-((N-methylcyanamido)methyl)-[2,3′-bipyridin]-5-yl)acetamide]
0.01 to 0.1 | 90 |  | N#Cc1ccc(-c2ccc(CC(=O)Nc3cc(O[C@@H]4CCOC4)c(Cl)cn3)cn2)cn1 [Compound 146, (R)-N-(5-chloro-4-((tetrahydrofuran-3-yl)oxy)pyridin-2-yl)-2-(6′-cyano-[2,3′-bipyridin]-5-yl)acetamide]
< 0.01 | 89 |  | COc1cc(NC(=O)Cc2cnc(C3=CCN(C#N)CC3)c(OC)c2)ncc1Cl [Compound 120, N-(5-chloro-4-methoxypyridin-2-yl)-2-(1′-cyano-3-methoxy-1′,2′,3′,6′-tetrahydro-[2,4′-bipyridin]-5-yl)acetamide]
0.01 to 0.1 | 89 |  | CN1CCC(Oc2cc(NC(=O)Cc3ccc(C4=CCN(C#N)CC4)nc3)ncc2Cl)CC1 [Compound 11, N-(5-chloro-4-((1-methylpiperidin-4-yl)oxy)pyridin-2-yl)-2-(1′-cyano-1′,2′,3′,6′-tetrahydro-[2,4′-bipyridin]-5-yl)acetamide]
> 0.1 |  | 85 | CNC(=O)C(C)Oc1cc(NC(=O)Cc2ccc(C3CCCN(C#N)C3)nc2)ncc1Cl (single isomer, unassigned) [Compound 87, 2-((5-chloro-2-(2-(6-(1-cyanopiperidin-3-yl)pyridin-3-yl)acetamido)pyridin-4-yl)oxy)-N-methylpropanamide]
< 0.01 | 91 |  | COc1cc(NC(=O)Cc2ccc(C3=CCCN(C#N)C3)cc2)ncc1Cl [Compound 114, N-(5-chloro-4-methoxypyridin-2-yl)-2-(4-(1-cyano-1,2,5,6-tetrahydropyridin-3-yl)phenyl)acetamide]
